In paper PMC6857626, “Potent bicyclic inhibitors of malarial cGMP-dependent protein kinase: approaches to combining improvements in cell potency, selectivity and structural novelty” (Bioorganic & Medicinal Chemistry Letters, 2019):
Like-named read-outs stand apart in the source and are kept apart here.

What was measured:
[1] = tested on: Plasmodium falciparum; assay: blood stage hypoxanthine incorporation (HXI) cell assay; format: cell-based; conditions: read-out: Pf HXI pEC50 (converted)
Excerpt: [21] Full details on biochemical assay and anti-malarial hypoxanthine incorporation (cell based) assay procedures can be found in reference 16.

[2] = mouse liver microsomal turnover; format: in vitro ADME; conditions: % remaining after 30 min incubation with mouse liver microsomes
Experimental: Microsomal turnover data was obtained using mouse liver microsomes (MLM) obtained from BD Biosciences. The compounds are pre-incubated at 37 °C for 5 minutes with the microsomes and the reaction was initiated by adding an equal volume of NADPH generating solution, also obtained from BD Biosciences. The final compound concentration in the incubation is 1 μM, and the microsomal protein concentration is 0.2 mg/mL. A sample is taken at t=0 and quenched with 2x volume of ice-cold methanol containing an internal standard reference compound (carbamazepine). The reaction is agitated at 37 °C for 30 minutes, when a further sample was taken and quenched in an identical fashion. The samples were centrifuged at 10000 rpm for 10 minutes and the supernatant taken for analysis in triplicate by LC-MS/MS (Agilent Technologies G6410 series, triple quadrupole with MM-ESI ion source) using optimised multiple reaction monitoring (MRM) scans and a standard column gradient on an Acquity UPLC BEH C8 1.7μm column, running acetonitrile and water with 0.05% acetic acid as the mobile phase. The % turnover is obtained by calculating the percentage difference of the peak areas, normalised to the internal standard, at t=0 and t=30. Verapamil is used as the standard compound for this assay.

[3] = tested on: HepG2 human liver-derived cells; assay: in vitro cytotoxicity assay in HepG2 cells; format: cell-based; conditions: for EC50: Homo sapiens, read-out: HepG2 pEC50 (converted)
[4] = Kinetic solubility; format: physicochemical
Experimental: The kinetic solubility was measured by diluting a small amount of 10 mM DMSO stock into PBS pH7.4 in a filtration plate at a target concentration of 200 μM giving a final solution composition of 98:2 PBS:DMSO. Each compound was run in triplicate on the same plate with two standard compounds, verapamil and ketoconazole, included per plate. The filtration plate was shaken at 500 rpm for 90 minutes and then filtered under vacuum. The filtrate was sampled and diluted with a DMSO:PBS mixture in a flat bottomed UV plate to give a solution with a composition of PBS:DMSO 80:20. A dilution series for each compound was then created in flat bottomed UV plates in PBS:DMSO 80:20 with concentrations 200 μM, 100 μM, 50 μM, 25 μM, 12.5 μM & […]. The UV absorbance for these solutions was read across 230-400 nm at 1 nm intervals using a TECAN Safire II plate reader and a suitable UV wavelength chosen around the UV maximum of each compound.

[5] = target: T1, PKG1β(h) (Homo sapiens, UniProt Q13976); assay: Millipore Kinase Profiler assay, PKG1β(h); format: biochemical; conditions: for pIC50: PKG1β(h); for activity against human orthologue of PKG: up to a top assay concentration of 1 µM
T1 construct: purchased Millipore (Kinase Profiler service, tested externally)
T1 sequence (Q13976 1-686 isoform Q13976-2): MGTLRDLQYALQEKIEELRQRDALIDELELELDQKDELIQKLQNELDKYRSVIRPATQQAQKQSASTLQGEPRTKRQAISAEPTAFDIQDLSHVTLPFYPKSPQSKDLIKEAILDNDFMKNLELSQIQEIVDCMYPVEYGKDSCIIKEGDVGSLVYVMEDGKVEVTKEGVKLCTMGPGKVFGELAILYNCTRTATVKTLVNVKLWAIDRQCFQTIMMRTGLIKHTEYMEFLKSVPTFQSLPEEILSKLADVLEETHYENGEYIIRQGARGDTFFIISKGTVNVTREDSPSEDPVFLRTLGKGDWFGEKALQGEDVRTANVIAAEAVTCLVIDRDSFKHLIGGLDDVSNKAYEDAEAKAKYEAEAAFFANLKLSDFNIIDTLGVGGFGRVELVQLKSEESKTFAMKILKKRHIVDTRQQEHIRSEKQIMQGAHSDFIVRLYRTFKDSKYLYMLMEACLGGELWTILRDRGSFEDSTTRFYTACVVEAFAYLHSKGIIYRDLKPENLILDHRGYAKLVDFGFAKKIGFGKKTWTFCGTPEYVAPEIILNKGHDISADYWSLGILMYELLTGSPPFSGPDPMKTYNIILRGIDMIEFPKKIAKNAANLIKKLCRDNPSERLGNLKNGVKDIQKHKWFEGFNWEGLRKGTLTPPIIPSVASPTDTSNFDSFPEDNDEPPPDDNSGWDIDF

[6] = target: T2, PKG1α(h) (Homo sapiens, UniProt Q13976); assay: Millipore Kinase Profiler assay, PKG1α(h); format: biochemical; conditions: for pIC50: PKG1α(h); for activity against human orthologue of PKG: up to a top assay concentration of 1 µM
T2 construct: purchased Millipore (Kinase Profiler service, tested externally)
T2 sequence (Q13976 1-671): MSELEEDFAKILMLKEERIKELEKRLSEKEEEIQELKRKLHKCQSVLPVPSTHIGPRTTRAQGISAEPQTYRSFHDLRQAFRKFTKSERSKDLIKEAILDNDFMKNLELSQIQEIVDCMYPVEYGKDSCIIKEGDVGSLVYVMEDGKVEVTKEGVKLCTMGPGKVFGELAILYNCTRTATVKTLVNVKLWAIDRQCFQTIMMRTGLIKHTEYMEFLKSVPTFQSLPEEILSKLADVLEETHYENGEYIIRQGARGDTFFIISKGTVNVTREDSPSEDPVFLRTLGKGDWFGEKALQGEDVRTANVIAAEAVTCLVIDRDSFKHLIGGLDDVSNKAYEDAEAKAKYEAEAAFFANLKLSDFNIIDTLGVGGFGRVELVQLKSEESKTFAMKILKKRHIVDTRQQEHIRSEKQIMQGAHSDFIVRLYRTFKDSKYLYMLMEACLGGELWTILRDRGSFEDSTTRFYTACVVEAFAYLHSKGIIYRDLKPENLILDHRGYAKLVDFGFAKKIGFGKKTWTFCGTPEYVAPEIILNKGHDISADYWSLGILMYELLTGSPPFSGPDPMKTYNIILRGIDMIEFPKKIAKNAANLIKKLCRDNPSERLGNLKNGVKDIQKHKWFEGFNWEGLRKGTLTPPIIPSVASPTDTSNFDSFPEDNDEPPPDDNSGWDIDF

[7] = target: PfPKG (Plasmodium falciparum, UniProt Q8I719); assay: biochemical; conditions: for IC50: biochemical assay, read-out: PfPKG pIC50 (converted); for LLE (pIC50 – mLogD): PfPKG pIC50 minus measured logD
[8] = Measured logD (shake flask); format: physicochemical; conditions: for mLogD: octanol/PBS
[9] = tested on: human kinase panel; assay: Kinase selectivity profiling against a human kinase panel; format: biochemical; conditions: single 1 µM concentration
Experimental: [29] Kinase selectivity profiling was carried out at the MRC Protein Phosphorylation Unit at the University of Dundee, U.K. at a single concentration of 1 µM for all three compounds.

[10] = blood stage hypoxanthine incorporation cell assay
[11] = HepG2, concentration at which half of cells remained viable at 48 h

Chain of PfPKG (Q8I719 whole entry): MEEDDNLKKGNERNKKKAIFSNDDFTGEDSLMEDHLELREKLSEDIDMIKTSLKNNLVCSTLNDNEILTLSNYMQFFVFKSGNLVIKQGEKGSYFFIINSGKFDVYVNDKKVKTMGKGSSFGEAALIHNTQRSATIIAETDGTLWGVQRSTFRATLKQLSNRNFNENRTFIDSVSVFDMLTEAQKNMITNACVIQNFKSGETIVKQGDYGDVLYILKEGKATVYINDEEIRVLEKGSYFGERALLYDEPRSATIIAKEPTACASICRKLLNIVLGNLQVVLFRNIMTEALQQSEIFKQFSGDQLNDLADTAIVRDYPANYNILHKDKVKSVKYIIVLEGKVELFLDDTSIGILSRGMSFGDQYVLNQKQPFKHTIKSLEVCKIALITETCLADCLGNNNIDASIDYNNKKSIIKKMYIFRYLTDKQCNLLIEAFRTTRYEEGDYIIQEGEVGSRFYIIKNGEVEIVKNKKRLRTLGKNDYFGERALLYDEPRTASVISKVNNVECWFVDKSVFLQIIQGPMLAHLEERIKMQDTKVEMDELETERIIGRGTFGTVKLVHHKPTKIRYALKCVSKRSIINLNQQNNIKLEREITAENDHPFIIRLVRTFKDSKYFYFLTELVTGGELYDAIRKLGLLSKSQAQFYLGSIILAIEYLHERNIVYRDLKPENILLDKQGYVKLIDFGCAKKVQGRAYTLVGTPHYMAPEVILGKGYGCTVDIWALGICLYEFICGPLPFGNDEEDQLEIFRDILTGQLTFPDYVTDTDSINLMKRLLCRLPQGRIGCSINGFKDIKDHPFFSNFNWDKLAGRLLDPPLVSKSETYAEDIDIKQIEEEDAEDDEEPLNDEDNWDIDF

Row | MLM % rem [2] [%] | IC50 [7] [µM] | LLE (pIC50 – mLogD) [7] | mLogD [8] | EC50 [1, 10] [µM] | Compound | other results
1 | – | – | – | – | – | CN(C)Cc1ccn2c(-c3ccnc(N)n3)c(-c3ccc(F)cc3)nc2c1 [Compound 2] | EC50 ([3]; HepG2, 48 h): > 20 µM; Kin sol ([4]; kinetic solubility, PBS pH7.4): 200 µM; pIC50 [5]: < 6; activity against human orthologue of PKG [5]: no activity; EC50 [1]: 0.363 µM; pIC50 [6]: < 6; activity against human orthologue of PKG [6]: no activity
2 | – | 0.0575 | – | – | – | Cc1nc2cc(CN(C)C)ccn2c1-c1ccnc(N)n1 [Compound 7] | –
3 | – | 0.148 | – | – | – | CN(C)Cc1ccn2c(-c3ccnc(N)n3)c(C(F)(F)F)nc2c1 [Compound 8] | –
4 | – | 0.0355 | 5.8 | 1.7 | – | CN(C)Cc1ccn2c(-c3ccnc(N)n3)c(C3CC3)nc2c1 [Compound 9] | –
5 | – | 0.0437 | 4.4 | 3.0 | – | CC(C)Nc1nccc(-c2c(C3CC3)nc3cc(CN(C)C)ccn23)n1 [Compound 10] | –
6 | – | 0.00871 | – | 2.5 | 1.74 | CN(C)Cc1ccn2c(-c3ccnc(Nc4ccccn4)n3)c(C3CC3)nc2c1 [Compound 11] | –
7 | – | 0.00724 | 6.0 | 2.1 | 0.112 | CN(C)Cc1ccn2c(-c3ccnc(Nc4ccc(N5CCN(C)CC5)cc4)n3)c(C3CC3)nc2c1 [Compound 12] | –
8 | 53 | 0.00447 | 6.8 | 1.5 | 0.2 | CN(C)Cc1ccn2c(-c3ccnc(Nc4ccc(N5CCNCC5)cc4)n3)c(C3CC3)nc2c1 [Compound 13] | in vitro cytotoxicity (in words) [3]: non-cytotoxic; EC50 [3, 11]: > 10 µM; selectivity against human kinase panel (in words) [9]: decreased level of selectivity; Kin sol ([4]; 90 min, pH 7.4): 189 µM
9 | – | 0.0295 | 5.9 | – | – | CN(C)Cc1cccn2c(-c3ccnc(N)n3)c(-c3ccc(F)cc3)nc12 [Compound 15] | logD at 12 h ([8]; octanol/phosphate buffered saline (PBS), read-out: mLogD): 1.6
10 | – | 0.0513 | 5.0 | 2.3 | – | CN(C)Cc1ccc2nc(-c3ccc(F)cc3)c(-c3ccnc(N)n3)n2c1 [Compound 16] | –
11 | – | 0.00851 | 6.0 | 2.1 | 0.851 | CN1CCC(Nc2ccn3c(-c4ccnc(N)n4)c(-c4ccc(F)cc4)nc3c2)C1 (stereo not shown) [Compound 20] | –
12 | – | 0.0126 | 5.7 | 2.2 | – | CN(C)CCCNc1ccc2nc(-c3ccc(F)cc3)c(-c3ccnc(N)n3)n2c1 [Compound 21] | –
13 | – | 0.00331 | 5.4 | 3.1 | 0.263 | CN1CCN(c2ccn3c(-c4ccnc(N)n4)c(-c4ccc(F)cc4)nc3c2)CC1 [Compound 22] | in vitro cytotoxicity (in words) [3]: did not
14 | – | 0.00263 | 5.8 | 2.8 | 0.871 | CN1CCN(c2ccc3nc(-c4ccc(F)cc4)c(-c4ccnc(N)n4)n3c2)CC1 [Compound 23] | in vitro cytotoxicity (in words) [3]: significant activity
15 | 88 | 0.00363 | 6.2 | 2.2 | 0.347 | CN1CCC(Nc2ccn3c(-c4ccnc(N)n4)c(-c4ccc(F)cc4)nc3c2)CC1 [Compound 24] | –
16 | 54 | 0.00741 | 5.9 | 2.2 | 0.813 | CN(C)CCOc1ccn2c(-c3ccnc(N)n3)c(-c3ccc(F)cc3)nc2c1 [Compound 25] | –
17 | 80 | 0.00257 | 6.5 | 2.1 | – | CN(C)CCNc1ccn2c(-c3ccnc(N)n3)c(-c3ccc(F)cc3)nc2c1 [Compound 26] | –
18 | 93 | 0.00275 | 6.4 | 2.2 | 0.525 | CNc1nccc(-c2c(-c3ccc(F)cc3)nc3cc(NCCN(C)C)ccn23)n1 [Compound 27] | in vitro cytotoxicity (in words) [3]: non-cytotoxic; EC50 [3, 11]: > 20 µM; selectivity against human kinase panel (in words) [9]: excellent selectivity profile; Kin sol ([4]; 90 min, pH 7.4): 207 µM; pIC50 [5]: < 6; activity against human orthologue of PKG [5]: no activity; pIC50 [6]: < 6; activity against human orthologue of PKG [6]: no activity
19 | 65 | 0.0204 | 5.8 | 1.9 | 1 | CN(C)CCc1ccn2c(-c3ccnc(N)n3)c(-c3ccc(F)cc3)nc2c1 [Compound 29] | –

Row | Compound | MLM % rem [2] [%] | IC50 [7] [µM] | LLE (pIC50 – mLogD) [7] | mLogD [8] | EC50 [1, 10] [µM] | other results
20 | CN1CCN(c2ccc(Nc3nccc(-c4c(-c5ccc(F)cc5)nc5ccccn45)n3)cc2)CC1 [Compound 1] | 65 | – | – | – | – | EC50 [1]: 0.115 µM
